Several values for one entry are separate records, joined by “and”; a condition that tells them apart may be missing. Identical values can stand only once.
What was measured:
Test in all cases: KINATIV assay of compounds I-3 and I-9, lysate directly labeled with ATP-biotin probe (no GF)
Format in all cases: cell-based
kinases in BCWM.1 cells [1] = molecular target: kinases in BCWM.1 cells (Homo sapiens, UniProt Q96RR4); settings: CaMKK2; Lys2; 1 μM; no GF
Experimental: (§1) The cells were harvested and lysed. […] Bound kinases were identified and quantitated by ACTIVX as described in Patricelli et al., Biochemistry, 2007, 46(2): 350-358. The compounds were tested in duplicates against duplicate or quadruplicate control samples.

kinases in BCWM.1 cells [2] = molecular target: kinases in BCWM.1 cells (Homo sapiens, UniProt P11802); settings: CDK4; Lys2; 1 μM; no GF
Experimental: as §1

kinases in BCWM.1 cells [3] = molecular target: kinases in BCWM.1 cells (Homo sapiens, UniProt P45985); settings: MAP2K4; Lys2; 1 μM; no GF
Experimental: as §1

kinases in BCWM.1 cells [4] = molecular target: kinases in BCWM.1 cells (Homo sapiens, UniProt P46734); settings: MAP2K3; Lys2; 1 μM; no GF
Experimental: as §1

kinases in BCWM.1 cells [5] = molecular target: kinases in BCWM.1 cells (Homo sapiens, UniProt P27361); settings: Erk1; Lys2; 1 μM; no GF
Experimental: as §1

kinases in BCWM.1 cells [6] = molecular target: kinases in BCWM.1 cells (Homo sapiens, UniProt Q04759); settings: PKCt; ATP Loop; 1 μM, 90 min; no GF
Experimental: as §1

kinases in BCWM.1 cells [7] = molecular target: kinases in BCWM.1 cells (Homo sapiens, UniProt Q8IU85); settings: CaMKld; Lys1; 1 μM; no GF
Experimental: as §1

kinases in BCWM.1 cells [8] = molecular target: kinases in BCWM.1 cells (Homo sapiens, UniProt P23458); settings: JAK1 domain2; Activation Loop; 1 μM; no GF
Experimental: as §1

kinases in BCWM.1 cells [9] = molecular target: kinases in BCWM.1 cells (Homo sapiens, UniProt Q12851); settings: GCK; Lys2; 1 μM; no GF
Experimental: as §1

kinases in BCWM.1 cells [10] = molecular target: kinases in BCWM.1 cells (Homo sapiens, UniProt Q9Y6E0); settings: MST3; Lys2; 1 μM; no GF
Experimental: as §1

kinases in BCWM.1 cells [11] = molecular target: kinases in BCWM.1 cells (Homo sapiens, UniProt Q96L34); settings: MARK4; Lys2; 1 μM; no GF
Experimental: as §1

kinases in BCWM.1 cells [12] = molecular target: kinases in BCWM.1 cells (Homo sapiens, UniProt P49841); settings: GSK3B; Lys2; 1 μM; no GF
Experimental: as §1

kinases in BCWM.1 cells [13] = molecular target: kinases in BCWM.1 cells (Homo sapiens, UniProt O14936); settings: CASK; Lys1; 1 μM; no GF
Experimental: as §1

kinases in BCWM.1 cells [14] = molecular target: kinases in BCWM.1 cells (Homo sapiens, UniProt Q16659); settings: Erk3; Lys2; 1 μM; no GF
Experimental: as §1

kinases in BCWM.1 cells [15] = molecular target: kinases in BCWM.1 cells (Homo sapiens, UniProt Q16566); settings: CaMK4; Lys2; 1 μM; no GF
Experimental: as §1

kinases in BCWM.1 cells [16] = molecular target: kinases in BCWM.1 cells (Homo sapiens, UniProt Q9Y616); settings: IRAK3; Lys1; 1 μM; no GF
Experimental: as §1

kinases in BCWM.1 cells [17] = molecular target: kinases in BCWM.1 cells (Homo sapiens, UniProt Q99755); settings: PIP5K1A; ATP; 1 μM, 90 min; no GF
Experimental: as §1

kinases in BCWM.1 cells [18] = molecular target: kinases in BCWM.1 cells (Homo sapiens, UniProt P06493); settings: CDC2; Protein Kinase Domain; 1 μM; no GF
Experimental: as §1

kinases in BCWM.1 cells [19] = molecular target: kinases in BCWM.1 cells (Homo sapiens, UniProt P28482); settings: Erk2; Lys2; 1 μM; no GF
Experimental: as §1

kinases in BCWM.1 cells [20] = molecular target: kinases in BCWM.1 cells (Homo sapiens, UniProt Q15831); settings: LKB1; Lys2; 1 μM; no GF
Experimental: as §1

kinases in BCWM.1 cells [21] = molecular target: kinases in BCWM.1 cells (Homo sapiens, UniProt Q06187); settings: BTK; Activation Loop; 1 μM; no GF
Experimental: as §1

kinases in BCWM.1 cells [22] = molecular target: kinases in BCWM.1 cells (Homo sapiens, UniProt Q9UK32); settings: RSK4 domain1; Lys2; 1 μM, 90 min; no GF
Experimental: as §1

kinases in BCWM.1 cells [23] = molecular target: kinases in BCWM.1 cells (Homo sapiens, UniProt Q9C0K7); settings: STLK6; Lys1; 1 μM, 90 min; no GF
Experimental: as §1

kinases in BCWM.1 cells [24] = molecular target: kinases in BCWM.1 cells (Homo sapiens, UniProt Q02156); settings: PKCe; Lys2; 1 μM, 90 min; no GF
Experimental: as §1

kinases in BCWM.1 cells [25] = molecular target: kinases in BCWM.1 cells (Homo sapiens, UniProt Q8TCG2); settings: PI4K2B; ATP; 1 μM, 90 min; no GF
Experimental: as §1

kinases in BCWM.1 cells [26] = molecular target: kinases in BCWM.1 cells (Homo sapiens, UniProt Q86UX6); settings: YANK3; Lys2; 1 μM, 90 min; no GF
Experimental: as §1

kinases in BCWM.1 cells [27] = molecular target: kinases in BCWM.1 cells (Homo sapiens, UniProt Q9Y2K2); settings: QSK; Lys2; 1 μM, 90 min; no GF
Experimental: as §1

kinases in BCWM.1 cells [28] = molecular target: kinases in BCWM.1 cells (Homo sapiens, UniProt P41743); settings: PKCi; Lys1; 1 μM, 90 min; no GF
Experimental: as §1

kinases in BCWM.1 cells [29] = molecular target: kinases in BCWM.1 cells (Homo sapiens, UniProt O94806); settings: PKD3; Lys1; 1 μM, 90 min; no GF
Experimental: as §1

Sequence of kinases in BCWM.1 cells (Homo sapiens, UniProt P11802) (P11802 2-303 limits assumed): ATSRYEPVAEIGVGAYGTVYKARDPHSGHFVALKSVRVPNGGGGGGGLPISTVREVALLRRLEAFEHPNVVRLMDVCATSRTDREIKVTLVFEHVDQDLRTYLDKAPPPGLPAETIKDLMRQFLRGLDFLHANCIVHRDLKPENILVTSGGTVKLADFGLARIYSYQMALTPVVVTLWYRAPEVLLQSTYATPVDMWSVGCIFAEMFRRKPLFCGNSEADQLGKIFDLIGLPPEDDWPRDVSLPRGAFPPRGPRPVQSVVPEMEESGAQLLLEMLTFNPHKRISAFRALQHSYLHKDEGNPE
Sequence of kinases in BCWM.1 cells (Homo sapiens, UniProt P27361) (P27361 2-379 limits assumed): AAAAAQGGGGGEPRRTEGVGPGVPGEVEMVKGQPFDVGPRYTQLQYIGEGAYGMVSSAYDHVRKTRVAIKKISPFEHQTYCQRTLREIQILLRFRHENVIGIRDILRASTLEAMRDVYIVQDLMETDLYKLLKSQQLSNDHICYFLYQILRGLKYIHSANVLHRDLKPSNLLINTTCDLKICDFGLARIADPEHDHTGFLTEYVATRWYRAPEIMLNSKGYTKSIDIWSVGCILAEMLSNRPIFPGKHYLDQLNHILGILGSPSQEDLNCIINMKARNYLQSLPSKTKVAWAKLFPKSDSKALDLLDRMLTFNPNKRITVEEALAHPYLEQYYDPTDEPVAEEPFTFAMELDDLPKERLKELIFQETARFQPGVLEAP
Sequence of kinases in BCWM.1 cells (Homo sapiens, UniProt P28482) (P28482 2-360 limits assumed): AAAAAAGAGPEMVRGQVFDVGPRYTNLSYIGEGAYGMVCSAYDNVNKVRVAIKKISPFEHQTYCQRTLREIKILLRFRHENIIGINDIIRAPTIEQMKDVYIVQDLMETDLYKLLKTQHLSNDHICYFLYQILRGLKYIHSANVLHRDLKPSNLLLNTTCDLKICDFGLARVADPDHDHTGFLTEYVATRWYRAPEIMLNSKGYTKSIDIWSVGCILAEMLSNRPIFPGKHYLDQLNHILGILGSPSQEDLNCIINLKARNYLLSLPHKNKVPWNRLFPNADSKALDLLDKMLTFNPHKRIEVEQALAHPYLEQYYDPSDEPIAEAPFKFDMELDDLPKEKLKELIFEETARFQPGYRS
Sequence of kinases in BCWM.1 cells (Homo sapiens, UniProt P45985) (P45985 2-399 limits assumed): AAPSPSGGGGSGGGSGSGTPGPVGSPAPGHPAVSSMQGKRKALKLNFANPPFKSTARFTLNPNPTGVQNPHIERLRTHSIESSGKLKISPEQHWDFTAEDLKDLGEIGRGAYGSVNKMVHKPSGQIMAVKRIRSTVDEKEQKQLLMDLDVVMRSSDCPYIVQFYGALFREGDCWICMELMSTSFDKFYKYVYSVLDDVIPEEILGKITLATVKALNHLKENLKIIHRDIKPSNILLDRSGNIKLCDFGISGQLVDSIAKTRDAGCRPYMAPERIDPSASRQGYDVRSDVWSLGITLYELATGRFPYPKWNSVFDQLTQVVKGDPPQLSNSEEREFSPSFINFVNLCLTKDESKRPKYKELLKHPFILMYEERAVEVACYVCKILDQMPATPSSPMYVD
Sequence of kinases in BCWM.1 cells (Homo sapiens, UniProt Q96RR4) (Q96RR4 2-588 limits assumed): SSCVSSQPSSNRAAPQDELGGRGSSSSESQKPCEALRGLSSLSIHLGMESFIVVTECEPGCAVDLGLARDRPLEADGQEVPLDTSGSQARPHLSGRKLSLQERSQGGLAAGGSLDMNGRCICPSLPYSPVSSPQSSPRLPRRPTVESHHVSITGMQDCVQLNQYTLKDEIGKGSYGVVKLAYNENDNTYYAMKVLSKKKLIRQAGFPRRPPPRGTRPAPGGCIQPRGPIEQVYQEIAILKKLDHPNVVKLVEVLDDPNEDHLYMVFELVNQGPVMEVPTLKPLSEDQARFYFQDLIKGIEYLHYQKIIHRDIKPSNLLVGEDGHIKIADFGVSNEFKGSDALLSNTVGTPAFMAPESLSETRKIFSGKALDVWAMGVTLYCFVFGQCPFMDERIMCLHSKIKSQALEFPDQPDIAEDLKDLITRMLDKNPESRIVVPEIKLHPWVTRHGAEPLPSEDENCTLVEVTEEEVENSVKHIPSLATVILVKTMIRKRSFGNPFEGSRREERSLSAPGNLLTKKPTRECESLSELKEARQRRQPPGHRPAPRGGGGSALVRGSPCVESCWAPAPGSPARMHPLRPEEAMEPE
Sequence of kinases in BCWM.1 cells (Homo sapiens, UniProt Q06187) (Q06187 2-659 limits assumed): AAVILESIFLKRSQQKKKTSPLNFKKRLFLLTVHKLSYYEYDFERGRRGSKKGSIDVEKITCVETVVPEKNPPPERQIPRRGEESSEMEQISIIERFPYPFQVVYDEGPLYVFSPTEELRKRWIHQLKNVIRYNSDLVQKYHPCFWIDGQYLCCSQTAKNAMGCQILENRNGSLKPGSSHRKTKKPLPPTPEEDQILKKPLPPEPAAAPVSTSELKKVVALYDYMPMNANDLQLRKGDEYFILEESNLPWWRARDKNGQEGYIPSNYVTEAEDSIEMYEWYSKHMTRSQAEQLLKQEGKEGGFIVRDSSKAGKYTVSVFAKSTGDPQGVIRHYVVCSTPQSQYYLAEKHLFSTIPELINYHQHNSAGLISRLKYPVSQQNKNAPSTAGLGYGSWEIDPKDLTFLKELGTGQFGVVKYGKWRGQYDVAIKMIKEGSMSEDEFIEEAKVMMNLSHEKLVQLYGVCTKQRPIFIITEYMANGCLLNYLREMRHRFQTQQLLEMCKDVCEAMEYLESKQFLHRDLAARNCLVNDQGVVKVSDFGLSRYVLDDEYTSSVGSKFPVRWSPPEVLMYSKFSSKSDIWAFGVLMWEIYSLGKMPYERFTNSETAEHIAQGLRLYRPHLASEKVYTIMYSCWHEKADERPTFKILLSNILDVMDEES
Sequence of kinases in BCWM.1 cells (Homo sapiens, UniProt P41743) (P41743 2-596 limits assumed): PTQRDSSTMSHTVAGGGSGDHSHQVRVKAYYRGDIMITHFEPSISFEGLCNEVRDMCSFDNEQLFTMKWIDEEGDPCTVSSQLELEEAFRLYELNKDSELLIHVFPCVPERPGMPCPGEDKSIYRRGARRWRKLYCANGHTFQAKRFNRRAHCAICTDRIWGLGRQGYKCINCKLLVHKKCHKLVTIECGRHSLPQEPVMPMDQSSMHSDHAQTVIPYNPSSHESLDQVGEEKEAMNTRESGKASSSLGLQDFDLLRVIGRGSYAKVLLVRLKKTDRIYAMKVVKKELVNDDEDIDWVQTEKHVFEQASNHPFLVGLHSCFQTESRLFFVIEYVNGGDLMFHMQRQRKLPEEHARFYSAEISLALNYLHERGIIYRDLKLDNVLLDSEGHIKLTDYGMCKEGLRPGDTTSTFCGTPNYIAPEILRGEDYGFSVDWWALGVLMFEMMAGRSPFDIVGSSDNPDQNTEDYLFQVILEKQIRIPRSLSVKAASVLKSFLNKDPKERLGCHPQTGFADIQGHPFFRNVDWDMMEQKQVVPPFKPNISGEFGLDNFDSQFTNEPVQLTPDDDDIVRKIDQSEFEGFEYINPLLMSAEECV

SMILES: C=CC(=O)N1CC[C@H](Nc2nccc(Nc3ncc(C(=O)Nc4c(C)cccc4C)s3)n2)C1 [Example I-3]
- % change of MS signal compared to control sample (kinases in BCWM.1 cells [1]): −2.1% and 1.7%
- % change of MS signal compared to control sample (kinases in BCWM.1 cells [2]): 10.3% and 4.8%
- % change of MS signal compared to control sample (kinases in BCWM.1 cells [3]): −3.9% and 1.1%
- % change of MS signal compared to control sample (kinases in BCWM.1 cells [4]): 15.6% and 5.8%
- % change of MS signal compared to control sample (kinases in BCWM.1 cells [5]): −0.6% and 1.5%
- % change of MS signal compared to control sample (kinases in BCWM.1 cells [6]): −5.2%
- % change of MS signal compared to control sample (kinases in BCWM.1 cells [7]): −0.4% and −5%
- % change of MS signal compared to control sample (kinases in BCWM.1 cells [8]): −2.9% and −1.6%
- % change of MS signal compared to control sample (kinases in BCWM.1 cells [9]): 18.1% and 17.8%
- % change of MS signal compared to control sample (kinases in BCWM.1 cells [10]): −2% and −3.8%
- % change of MS signal compared to control sample (kinases in BCWM.1 cells [11]): −8.5% and −8.7%
- % change of MS signal compared to control sample (kinases in BCWM.1 cells [12]): 9.4% and −0.5%
- % change of MS signal compared to control sample (kinases in BCWM.1 cells [13]): −1% and 0.5%
- % change of MS signal compared to control sample (kinases in BCWM.1 cells [14]): 23.2% and 23.8%
- % change of MS signal compared to control sample (kinases in BCWM.1 cells [15]): 6.8% and −0.1%
- % change of MS signal compared to control sample (kinases in BCWM.1 cells [16]): −11.3% and −5.5%
- % change of MS signal compared to control sample (kinases in BCWM.1 cells [17]): 26.2%
- % change of MS signal compared to control sample (kinases in BCWM.1 cells [18]): −0.7% and −4.3%
- % change of MS signal compared to control sample (kinases in BCWM.1 cells [19]): −1.8% and 1.1%
- % change of MS signal compared to control sample (kinases in BCWM.1 cells [20]): −11.2% and −8.7%
- % change of MS signal compared to control sample (kinases in BCWM.1 cells [21]): 94.7% and 95.2%

SMILES: CCC(=O)N1CC[C@H](Nc2nccc(Nc3ncc(C(=O)Nc4c(C)cccc4C)s3)n2)C1 [Example I-9]
- % change of MS signal compared to control sample (kinases in BCWM.1 cells [22]): 9.1%
- % change of MS signal compared to control sample (kinases in BCWM.1 cells [23]): 7.2%
- % change of MS signal compared to control sample (kinases in BCWM.1 cells [24]): −38.2%
- % change of MS signal compared to control sample (kinases in BCWM.1 cells [25]): 2.6%
- % change of MS signal compared to control sample (kinases in BCWM.1 cells [26]): −8.6%
- % change of MS signal compared to control sample (kinases in BCWM.1 cells [27]): −1.8%
- % change of MS signal compared to control sample (kinases in BCWM.1 cells [28]): 16.5%
- % change of MS signal compared to control sample (kinases in BCWM.1 cells [29]): −15.2%
